We go through 27 compounds from US20240309003A1, “HETEROCYCLIC COMPOUNDS AS TRIGGERING RECEPTOR EXPRESSED ON MYELOID CELLS 2 AGONISTS AND METHODS OF USE” (Vigil Neuroscience, Inc., priority 2021, published 2024).

Each structure is given as a SMILES string. pEC50: −log10 of the molar value.

T1 sequence (Q9NZC2 19-230): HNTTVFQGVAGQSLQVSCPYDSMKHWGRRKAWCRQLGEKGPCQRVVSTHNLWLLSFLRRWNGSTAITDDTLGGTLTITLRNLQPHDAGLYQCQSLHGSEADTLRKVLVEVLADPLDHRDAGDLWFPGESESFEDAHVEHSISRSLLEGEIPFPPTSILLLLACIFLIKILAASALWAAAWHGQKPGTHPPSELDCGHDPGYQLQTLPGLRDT
T1 sequence (O43914 22-113 partner): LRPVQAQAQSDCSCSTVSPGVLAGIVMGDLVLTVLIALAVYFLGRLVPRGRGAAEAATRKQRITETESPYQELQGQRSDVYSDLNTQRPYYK

The first test has as its target T1, human TREM2 (Homo sapiens, UniProt Q9NZC2).
T1 construct: expressed in transfected cells; host or cells: HEK293T
In words: TREM2 agonist potency by cellular phosphorylation of Syk (AlphaLisa) in HEK293T-hTREM2 cells. The test is classed as cell-based. The following applies: HEK293 cells expressing human TREM2 and DAP12, Table D. The procedure:
In Vitro Measurement of Triggering Receptor Expressed on Myeloid Cells 2 Activity Using Cellular Phosphorylation of Spleen Tyrosine Kinase (“Syk”) Assays
Measurement of TREM2 agonist potency was done using a HEK cell line expressing human TREM2 and DAP12 (HEK293T-hTREM2 cells). Binding of small molecules to, and activation of, TREM2 increases the phosphorylation of Syk. The resultant levels of Syk phosphorylation are measured using a commercial AlphaLisa reagent kit. To perform the assay, HEK-hTREM2 cells were plated at 14,000 cells per well in a 384 well plate, in 25 μL of complete growth media and incubated at 37° C., 5% CO2 for 20-24 hours.
Prior to the assay, test compounds were diluted in the 384 well plates in assay buffer and allowed to equilibrate for 30 minutes. Growth media was removed from cell plates by inversion on blotting paper, and 25 μL of test articles in assay buffer was added to cells. Cells were incubated for 45 minutes at room temperature. After 45 minutes, assay buffer was removed and 10 μL of lysis buffer was added. Plates were shaken for 20 minutes at 350 RPM at room temperature. After complete lysis, AlphaLisa reagents were added to the lysate, and fluourescence intensity was measured using a Perkin Elmer Envision plate reader. Intensities were used to generate a standard curve, and % activation was calculated. Curve fitting was performed using Prism v9 software, log(agonist) vs response-variable slope (four parameters), and EC50s were calculated from the curve fit.
This assay may be used to test any of the compounds described herein to assess and characterize a compound's ability to act as an agonist of TREM2.
A general note: Bead proximity is the source of the signal in Alpha formats.
One may read the pEC50 as the negative decadic logarithm of the EC50, by convention in mol/L. Low readings indicate a high EC50, high ones a low EC50. `Cc1cc([C@H]2C[C@@H](c3nc(-c4ccc(C(F)(F)F)nc4)c4nc(C)c(C)nc4n3)CCO2)ccn1` (racemic) [Example 4, 6,7-dimethyl-2-((2R,4S)-2-(2-methylpyridin-4-yl)tetrahydro-2H-pyran-4-yl)-4-(6-(trifluoromethyl)pyridin-3-yl)pteridine] showed a negative-log EC50 (pEC50) of 6.30 to 7.30.

`Cc1cnc2c(C34CC(C(F)(F)F)(C3)C4)nc(N3C[C@@H](C)O[C@@H](c4cnn(C5CC5)c4)C3)nc2n1` (racemic) [Example 49, 2-(1-cyclopropyl-1H-pyrazol-4-yl)-6-methyl-4-(7-methyl-4-(3-(trifluoromethyl)bicyclo[1.1.1]pentan-1-yl)pteridin-2-yl)morpholine] gave a pEC50 greater than 7.30.

Consider `Cc1cnc2c(-c3ccc(Cl)cc3F)nc(N3C[C@@H](C)O[C@@H](c4cnn(C5CC5)c4)C3)nc2n1` (racemic) [Example 70, 4-(4-(4-chloro-2-fluorophenyl)-7-methylpteridin-2-yl)-2-(1-cyclopropyl-1H-pyrazol-4-yl)-6-methylmorpholine], for which the pEC50 was greater than 7.30.

In turn, `Cc1cc([C@H]2C[C@@H](c3nc(-c4cc(F)c(Cl)c(F)c4)c4nc(C)c(C)nc4n3)CCO2)ccn1` (racemic) [Example 84, 4-(4-chloro-3,5-difluoro-phenyl)-6,7-dimethyl-2-[(2R,4S)-2-(2-methyl-4-pyridyl)tetrahydropyran-4-yl]pteridine] showed a pEC50 greater than 7.30.

In turn, `Cc1cc([C@H]2C[C@@H](c3nc(-c4ccc(Cl)c(F)c4F)c4ncc(C)nc4n3)CCO2)ccn1` (racemic) [Example 89, 4-(4-chloro-2,3-difluorophenyl)-7-methyl-2-(2-(2-methylpyridin-4-yl)tetrahydro-2H-pyran-4-yl)pteridine] had a negative logarithm of the EC50 (pEC50) greater than 7.30.

`[2H]C1([2H])C[C@@H](c2nc(-c3ccc(F)cc3F)c3nc(C)c(C)nc3n2)C[C@@H](c2cnn(C3CC3)c2)O1` (single isomer, unassigned) [Example 170] gave a pEC50 greater than 7.30.

In turn, `[2H][C@@]1(c2cnn(C3CC3)c2)C[C@H](c2nc(-c3ccc(F)cc3F)c3nc(C)c(C)nc3n2)CCO1` (single isomer, unassigned) [Example 183] showed a pEC50 of 4.00 to 5.52.

`[2H]C1([2H])C[C@@H](c2nc(-c3ccc(F)cc3F)c3nc(C)c(C)nc3n2)C[C@@]([2H])(c2cnn(C3CC3)c2)O1` (single isomer, unassigned) [Example 191] showed a pEC50 of 4.00 to 5.52.

On to `Cc1nc2nc([C@@H]3CCO[C@H](c4cnn(C5CC(F)C5)c4)C3)nc(C34CC(C(F)(F)F)(C3)C4)c2nc1C` (stereo in doubt) [Example 134, 2-((2S,4R)-2-(1-(3-fluorocyclobutyl)-1H-pyrazol-4-yl)tetrahydro-2H-pyran-4-yl)-6,7-dimethyl-4-(3-(trifluoromethyl)bicyclo[1.1.1]pentan-1-yl)pteridine], for which the negative logarithm of the EC50 (pEC50) is greater than 7.30.

`Cc1nc2nc([C@H]3CCO[C@@H](c4cnn(C5CC(F)C5)c4)C3)nc(C34CC(C(F)(F)F)(C3)C4)c2nc1C` (stereo in doubt) [Example 135, 2-((2R,4S)-2-(1-(3-fluorocyclobutyl)-1H-pyrazol-4-yl)tetrahydro-2H-pyran-4-yl)-6,7-dimethyl-4-(3-(trifluoromethyl)bicyclo[1.1.1]pentan-1-yl)pteridine] showed a pEC50 of 6.30 to 7.30.

The test is the same for the next values; noted with them: HEK293 cells expressing human TREM2 and DAP12, Table D-2.
The compound `COc1nc2c(-c3ccc(Cl)cc3F)nc([C@@H]3CCO[C@H](c4cnn(C5CC5)c4)C3)nc2nc1C` (racemic) [Example I-1221, 4-(4-chloro-2-fluoro-phenyl) −6-methoxy-7-methyl-2-[rac-(2S,4R)-2-(1-cyclopropylpyrazol-4-yl)tetrahydropyran-4-yl]pteridine] had a pEC50 greater than 7.30.

Compound `COc1nc2c(-c3ccc(F)cc3F)nc([C@@H]3CCO[C@H](c4cnn(C5CC5)c4)C3)nc2nc1C` (racemic) [Example I-1653, 4-(2,4-difluorophenyl)-6-methoxy-7-methyl-2-[rac-(2R,4S)-2-(1-cyclopropylpyrazol-4-yl)tetrahydropyran-4-yl]pteridine] gave a pEC50 greater than 7.30.

`Cc1nc2nc(C3CCS(=O)(=O)N(c4cnn(C5CC5)c4)C3)nc(-c3ccc(Cl)cc3F)c2nc1C` (racemic) [Example I-1733, 4-[4-(4-chloro-2-fluoro-phenyl)-6,7-dimethyl-pteridin-2-yl]-2-(1-cyclopropylpyrazol-4-yl)thiazinane 1,1-dioxide] gave a pEC50 of 6.30 to 7.30.

`CCCc1nc2nc(N3C[C@@H](C)O[C@@H](c4cnn(C5CC5)c4)C3)nc(-c3ccc(F)cc3F)c2nc1C` (single isomer, unassigned) [Example I-1288] showed a pEC50 greater than 7.30.

Compound `Cc1nc2nc(N3C[C@@H](C(F)F)O[C@@H](c4cnn(C5CC5)c4)C3)nc(-c3ccc(F)cc3F)c2nc1C` (single isomer, unassigned) [Example I-1467] gave a pEC50 greater than 7.30.

Take `Cc1nc2nc(N3C[C@@H](c4cnn(C5CC5)c4)O[C@@H](C(F)F)C3)nc(-c3ccc(F)cc3F)c2nc1C` (single isomer, unassigned) [Example I-1524]: the pEC50 is greater than 7.30.

`Cc1nc2nc([C@@H]3CCO[C@@H](c4cnc(C5CC5)o4)C3)nc(-c3ccc(F)cc3F)c2nc1C` (single isomer, unassigned) [Example I-1696] showed a negative logarithm of the EC50 (pEC50) of 5.52 to 6.30.

Compound `Cc1nc2nc(N3CCCO[C@H](c4cnn(C5CC5)c4)C3)nc(-c3ccc(F)cc3F)c2nc1C` (stereo in doubt) [Example I-1144, 2-(1-cyclopropyl-1H-pyrazol-4-yl)-4-(4-(2,4-difluorophenyl)-6,7-dimethylpteridin-2-yl)-1,4-oxazepane] showed a pEC50 of 5.52 to 6.30.

Regarding `Cc1nc2nc([C@H]3CCO[C@@H](c4cnn(C5CC5)c4)C3)nc(-c3ccc4c(c3)CCC4)c2nc1C` (stereo in doubt) [Example I-1170, 4-indan-5-yl-6,7-dimethyl-2-[(2R,4S)-2-(1-cyclopropylpyrazol-4-yl)tetrahydropyran-4-yl]pteridine], the negative logarithm of the EC50 (pEC50) is greater than 7.30.

`Cc1cc([C@@H]2CN(c3nc(-c4ccc(Cl)cc4F)c4nc(C)c(C)nc4n3)CCO2)on1` (stereo in doubt) [Example I-1241, 4-[4-(4-chloro-2-fluoro-phenyl)-6,7-dimethyl-pteridin-2-yl]-2-(3-methylisoxazol-5-yl)morpholine] had a pEC50 greater than 7.30.

For `Cc1nc2nc([C@H]3CCO[C@@H](c4cnn(C5CC5)c4)C3)nc(-c3c(F)cc(C(F)(F)F)cc3F)c2nc1C` (stereo in doubt) [Example I-1391, 4-[2,6-difluoro-4-(trifluoromethyl)phenyl]-6,7-dimethyl-2-[(2R,4S)-2-(1-cyclopropylpyrazol-4-yl)tetrahydropyran-4-yl]pteridine], the pEC50 was greater than 7.30.

Consider `Cc1nc2nc(N3CCOC(c4cnn5c4CCC5)C3)nc(-c3ccc(F)cc3F)c2nc1C` (stereo in doubt) [Example I-1532, (2S)-4-[4-(2,4-difluorophenyl)-6,7-dimethyl-pteridin-2-yl]-2-(5,6-dihydro-4H-pyrrolo[1,2-b]pyrazol-3-yl)morpholine], for which the negative-log EC50 (pEC50) is 6.30 to 7.30.

`Cc1nc2nc([C@H]3CCO[C@@H](c4cnn(C5CC5)c4)C3)nc(-c3ccc(C(F)(F)F)c(F)c3F)c2nc1C` (stereo in doubt) [Example I-1588, 4-[2,3-difluoro-4-(trifluoromethyl)phenyl]-6,7-dimethyl-2-[(2R,4S)-2-(1-cyclopropylpyrazol-4-yl)tetrahydropyran-4-yl]pteridine]: the pEC50 is greater than 7.30.

Take `Cc1nc2nc(N3C[C@@H](C(F)F)O[C@@H](c4cnn(C5CC5)c4)C3)nc(-c3ccc(C(F)(F)F)cc3F)c2nc1C` (stereo in doubt) [Example I-1598, (2S,6S)-2-(1-cyclopropylpyrazol-4-yl)-6-(difluoromethyl)-4-[4-[2-fluoro-4-(trifluoromethyl)phenyl]-6,7-dimethyl-pteridin-2-yl]morpholine]: the pEC50 is greater than 7.30.

`Cc1nc2nc([C@H]3CC(CO)O[C@@H](c4cnn(C5CC5)c4)C3)nc(-c3ccc(F)cc3F)c2nc1C` (stereo in doubt) [Example I-1624, [(2S,4R,6R)-6-(1-cyclopropylpyrazol-4-yl)-4-[4-(2,4-difluorophenyl)-6,7-dimethyl-pteridin-2-yl]tetrahydropyran-2-yl]methanol]: the negative logarithm of the EC50 (pEC50) was 5.52 to 6.30.

Take `COCCn1cc([C@H]2C[C@@H](c3nc(-c4ccc(F)cc4F)c4nc(C)c(C)nc4n3)CCO2)cn1` (stereo in doubt) [Example I-1658, 4-(2,4-difluorophenyl)-2-(2-(1-(2-methoxyethyl)-1H-pyrazol-4-yl)tetrahydro-2H-pyran-4-yl)-6,7-dimethylpteridine]: the pEC50 was 6.30 to 7.30.

Take `COc1nc2c(-c3ccc(C(F)(F)F)cc3F)nc([C@H]3CCO[C@@H](c4cnn(C5CC5)c4)C3)nc2nc1C` (stereo in doubt) [Example I-1691, 2-((2R,4S)-2-(1-cyclopropyl-1H-pyrazol-4-yl)tetrahydro-2H-pyran-4-yl)-4-(2-fluoro-4-(trifluoromethyl)phenyl)-6-methoxy-7-methylpteridine]: the pEC50 was greater than 7.30.
